From US20160216259A1, “ISOTHERMAL TITRATION CALORIMETRY METHODS FOR EVALUATION OF THERMODYNAMIC BINDING PROPERTIES” (The Penn State Research Foundation, priority 2015, published 2016)
pKd: −log10 of the molar value. Several values for one entry are separate records, joined by “and”; a condition that tells them apart may be missing. Equal entries are not always repeated. Where two headings read alike, the source gives them in different places. Marks after values point to notes of the source that are not given here.

What was measured:
[1] = for ln K: Tricine pH 8.5, 25° C.
Experimental: The titrations were performed on a NanoITC (TA Instruments, New Castle, Del.) with gold cells with a cell volume of 1 mL. ITC experiments were carried out at 25° C. and the stirring speed was 250 rpm. For the single independent binding experiment, ligand of 20 mM in 100 μL syringe and for the competitive binding site and two independent binding sites model, ligand of 10 mM in 250 μL syringe were used. The injection rate was varied 1.7-10 μL/min for the continuous injection mode under setting tab in ITCRun software. […] The first data point for the incremental injection mode and data for the initial 10 μL of injection for the continuous injection mode is excluded for data fitting with binding models due to reduced amount of the heat flow.
Binding of Ba^2+ and EDTA were performed and analyzed with the single independent binding site model in order to obtain the confidence intervals depending on the number of injections.
The number of injections for the incremental injection experiment was 36 with an injection volume of 2.5 μL. An injection rate of 1.7 μL/min was utilized in the continuous injection experiment. The fit for the continuous injection method was done after 0.1 mM of ligand had been injected.
The experimental time for incremental injection mode experiment was ˜6.5 h (36 injections), while the continuous injection experiment completed within ˜1 h.

[2] = Tricine pH 8.5, 25° C.; for ln K1 / ln K2: EDTA/DPTA mixture, 99% CI in parentheses; for ln K: real-time evaluation from data at inflection points, continuous 7.2 μL/min
Experimental: The pH of these solutions was adjusted to 8.5 with 1 M NaOH solution. For the single independent binding site and two independent binding sites experiments, Tricine (20 mM) was used as a buffer solution. For the competitive binding site experiment, HEPES (20 mM) was used as a buffer solution.
The titrations were performed on a NanoITC (TA Instruments, New Castle, Del.) with gold cells with a cell volume of 1 mL. ITC experiments were carried out at 25° C. and the stirring speed was 250 rpm. For the single independent binding experiment, ligand of 20 mM in 100 μL syringe and for the competitive binding site and two independent binding sites model, ligand of 10 mM in 250 μL syringe were used. The injection rate was varied 1.7-10 μL/min for the continuous injection mode under setting tab in ITCRun software. During the equilibration, mass transfer of ligand at the tip of the injection syringe reduces the integrated heat of the first injection. The first data point for the incremental injection mode and data for the initial 10 μL of injection for the continuous injection mode is excluded for data fitting with binding models due to reduced amount of the heat flow.
By changing the concentration of EDTA and DPTA in the mixture, the various binding stoichiometry of the receptor, n and m, were simulated. […] The number of injections for the incremental injection mode experiment is 40 with an injection volume of 6 μL. Injection rate for the continuous injection mode is 7.2 μL/min.
The fit for the continuous injection method was done after 0.05 mM of ligand was injected. […] The positive peaks of the binding isotherms in the raw data (top) represent the exothermic heat of binding.

[3] = 1 mM EDTA + 4 mM BaCl2, HEPES pH 8.5, 25° C.
Experimental: The pH of these solutions was adjusted to 8.5 with 1 M NaOH solution. […] For the competitive binding site experiment, HEPES (20 mM) was used as a buffer solution.
Injection rate for the continuous injection mode is 10 μL/min.
The fit for the continuous injection method was done after 0.1 mM of ligand was injected. […] The positive peaks of the binding isotherms in the raw data (top) represent the exothermic heat of binding.

avidin [4] = molecular target: T1, avidin (Gallus gallus, UniProt P02701); test: Continuous injection ITC, single independent binding of lipoic acid to avidin; conditions: 1 mM lipoic acid, continuous 0.1 mL/h into 25 μM avidin, 25° C., pH 6.6
T1 construct: purchased Sigma-Aldrich
T1 sequence (P02701 25-152): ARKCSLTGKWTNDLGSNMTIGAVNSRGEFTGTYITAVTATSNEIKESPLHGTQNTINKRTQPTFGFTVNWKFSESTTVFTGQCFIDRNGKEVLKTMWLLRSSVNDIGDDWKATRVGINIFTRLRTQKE
Experimental: (§1) The molecular weight of avidin (12.8 units per mg protein) was used as 66000 g/mol. […] […] HEPES (1 mM) was used as the buffer solution.
(§2) The continuous titrations were performed on a VP-ITC (Malvern Instruments, Westborough, Mass.) with a cell volume of 1.4 mL. The incremental titrations were performed on a NanoITC (TA Instruments, Lindon, Utah) with a cell volume of 1 mL. ITC experiments were carried out at 25° C. and the stirring speed was 270 rpm and 250 rpm for the continuous titration and incremental titration, respectively. For manipulating injection rate, a PHD 2000 syringe pump (Harvard Apparatus, Holliston, Mass.) was connected to the injection syringe of the VP-ITC.
Injection rate for the continuous injection mode was 0.1 mL/h. The fit for the continuous injection method was done after 12 μM of ligand was injected. […] Injection rate for the continuous injection mode is 0.1 mL/h. The fit for the continuous injection method was done after […] of ligand was injected.

avidin [5] = molecular target: T1, avidin; conditions: reported; pH 6.8; cited from earlier work
avidin [6] = molecular target: T1, avidin; test: Continuous injection ITC, binding of desthiobiotin to avidin, single independent binding site model; conditions: 0.5 mM desthiobiotin, continuous 25 μL/h into 12.5 μM avidin, 25° C., pH 7.2
Experimental: as §1, §2

avidin [7] = molecular target: T1, avidin; test: Continuous injection ITC, competitive binding of desthiobiotin to avidin mixed with lipoic acid; conditions: pH 6.6
Experimental: as §1, §2
[…] The fit for the continuous injection method was done after 12 μM of ligand was injected. […] […] The fit for the continuous injection method was done after […] of ligand was injected.

[8] = continuous injection 7.2 μL/min
[9] = incremental, 40 injections of 6 μL
[10] = apparent, 12.5 μM avidin mixed with 0.75 mM lipoic acid, 25° C.

For `[Ba+2].[Cl-].[Cl-]` [BaCl2, barium chloride], the K2 ([1]; Ba^2+ and EDTA, obtained independently by incremental injection, input for the competitive model, listed as Ba^2+) was 1.36e+06 M⁻¹, the “ln K” value ([1]; continuous injection 1.7 μL/min, 99% confidence interval in parentheses) was 14.15 (14.13, 14.16) and 14.11 (14.09, 14.03) and 13.73 (13.71, 13.75) and the “ln K” value ([1]; incremental injection, 9 injections, 99% confidence interval in parentheses) was 14.26 (13.5, 16.7) and 14.14 (13.0, 16.5) and 13.99 (13.4, 14.6). The “ln K” value ([1]; incremental injection, 18 injections, 99% confidence interval in parentheses) was 14.07 (13.6, 14.6) and 14.05 (13.8, 14.5) and 13.88 (13.3, 14.8), the “ln K” value ([1]; incremental injection, 36 injections, 99% confidence interval in parentheses) was 14.07 (13.8, 14.4) and 14.13 (13.9, 14.4) and 14.02 (13.8, 14.3) and the “ln K” value ([1]; real-time evaluation from data at inflection point, continuous injection 1.7 μL/min) was 14.22.

For `O.O.O.O.O=[N+]([O-])[O-].O=[N+]([O-])[O-].[Ca+2]` [Ca(NO3)2, Calcium nitrate tetrahydrate], the “ln K1” value [2, 8] was 18.11 (18.07, 18.15), the “ln K2” value [2, 8] was 11.27 (11.25, 11.30) and the “ln K1” value [2, 9] was 19.50 (18.98, 20.33). The “ln K2” value [2, 9] was 11.42 (11.14, 11.69), the “ln K” value ([2]; association of Ca^2+ and DPTA) was 12.24^g and the “ln K” value ([2]; association of Ca^2+ and EDTA) was 18.98^f. The “ln K” value ([3]; continuous injection 10 μL/min, 99% CI in parentheses) was 20.535 (20.52, 20.55), the “ln K” value ([3]; incremental, 20 injections of 10 μL, 99% CI in parentheses) was 20.47 (20.3, 20.6) and the “ln K” value ([3]; real-time evaluation from data at inflection point, continuous injection 10 μL/min) was 20.64.

In the case of `O=C(O)CCCCC1CCSS1` (stereo not drawn) [Lipoic acid, α-Lipoic acid], the ΔH1 (avidin [4]) is given as -9.95 kcal/mol, the pKd (avidin [4]; read-out: Kd1) is given as 6.28 and the pKd (avidin [5]) is given as 6.15.

With `C[C@@H]1NC(=O)N[C@@H]1CCCCCC(=O)O` [desthiobiotin, d-desthiobiotin] the ΔH (avidin [6]) was -17.55 kcal/mol, the m (avidin [7]; 0.5 mM desthiobiotin, 25 μL/h into 12.5 μM avidin mixed with 0.75 mM lipoic acid, 25° C.) was 0.294 and the “Kd,app” value (avidin [7]; [10]) was 0.00104 µM. It also gave a ΔHapp (avidin [7]; [10]) of -9.74 kcal/mol and a ΔH (avidin [7]; evaluated by competitive binding method from lipoic acid and apparent parameters) of -19.7 kcal/mol.
